Molecules are shown by their SMILES.

This assay deals with PIK3CG (human) (UniProt P48736). Briefly: Inhibition of PIK3CG Kinase Activity.
Chain of PIK3CG (human) (P48736 whole entry, looked up): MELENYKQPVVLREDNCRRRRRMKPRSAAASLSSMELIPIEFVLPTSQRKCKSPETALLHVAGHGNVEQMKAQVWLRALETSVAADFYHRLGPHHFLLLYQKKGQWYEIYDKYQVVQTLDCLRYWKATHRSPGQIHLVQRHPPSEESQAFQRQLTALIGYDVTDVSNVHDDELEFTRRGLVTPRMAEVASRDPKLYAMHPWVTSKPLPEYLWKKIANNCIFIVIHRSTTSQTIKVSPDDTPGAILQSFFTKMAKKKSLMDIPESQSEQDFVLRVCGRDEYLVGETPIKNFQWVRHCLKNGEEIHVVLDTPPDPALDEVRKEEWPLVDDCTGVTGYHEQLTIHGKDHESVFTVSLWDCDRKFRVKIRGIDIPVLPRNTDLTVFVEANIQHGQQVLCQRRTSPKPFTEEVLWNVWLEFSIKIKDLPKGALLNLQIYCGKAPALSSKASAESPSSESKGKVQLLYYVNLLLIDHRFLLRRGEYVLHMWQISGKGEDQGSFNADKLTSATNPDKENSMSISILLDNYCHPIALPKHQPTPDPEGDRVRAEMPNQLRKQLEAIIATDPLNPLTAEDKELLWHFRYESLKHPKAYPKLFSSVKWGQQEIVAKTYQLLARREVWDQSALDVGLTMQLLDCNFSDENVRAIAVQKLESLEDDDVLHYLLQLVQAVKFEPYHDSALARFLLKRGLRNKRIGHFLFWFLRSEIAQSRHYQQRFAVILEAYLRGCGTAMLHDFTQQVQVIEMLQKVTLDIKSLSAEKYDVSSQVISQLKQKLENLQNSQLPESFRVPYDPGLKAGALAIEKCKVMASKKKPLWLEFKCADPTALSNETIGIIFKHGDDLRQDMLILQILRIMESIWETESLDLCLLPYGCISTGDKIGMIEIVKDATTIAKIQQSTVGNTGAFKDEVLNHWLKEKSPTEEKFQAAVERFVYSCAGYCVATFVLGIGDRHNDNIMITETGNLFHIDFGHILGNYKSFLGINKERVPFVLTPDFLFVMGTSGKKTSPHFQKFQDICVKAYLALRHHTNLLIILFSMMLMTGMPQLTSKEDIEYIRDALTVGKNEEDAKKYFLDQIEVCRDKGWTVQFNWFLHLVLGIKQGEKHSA
`CC(C)(C)OC(=O)N1CCC(CNC(=O)Nc2nc3c(s2)-c2c(cnn2-c2ccccc2Cl)C3)CC1` gave an IC50 below 800 nM.

For the molecule `O=C(NCc1cc(C2CC2)n[nH]1)Nc1nc2c(s1)-c1c(cnn1-c1ccccc1Br)C2`, the IC50 is below 800 nM.

On to `CC(C)(CCn1c(=O)[nH]c2ccccc21)NC(=O)Nc1nc2c(s1)-c1c(cnn1-c1ccccc1C(F)(F)F)C2`, for which the IC50 is below 800 nM.

Consider `O=C(Nc1nc2c(s1)-c1c(cnn1-c1ccccc1Cl)C2)N1CCCC(C(O)c2ccccc2)C1` (configuration not stated), for which the IC50 was below 800 nM.

In the case of `CCc1cnc(CCNC(=O)Nc2nc3c(s2)-c2c(cnn2-c2ccccc2Br)C3)o1`, the IC50 was below 800 nM.

`CC(C)(C)OC(=O)CCNC(=O)Nc1nc2c(s1)-c1c(cnn1-c1ccccc1Br)C2` yielded an IC50 below 800 nM.

For the molecule `CC(C)(C)OC(=O)NCc1cccc(CNC(=O)Nc2nc3c(s2)-c2c(cnn2-c2ccccc2Cl)C3)c1`, the IC50 was below 800 nM.

With `CC(C)(C)OC(=O)N1CCC[C@@H]1CNC(=O)Nc1nc2c(s1)-c1c(cnn1-c1ccccc1Cl)C2`, the IC50 was below 800 nM.

For the molecule `NC(=O)Nc1nc2c(s1)-c1c(cnn1-c1ccccc1Br)C2`, the half-inhibitory concentration (IC50) was below 800 nM.

In the case of `O=C(Nc1nc2c(s1)-c1c(cnn1-c1ccccc1Cl)C2)N1CCCC(c2ccccc2O)C1` (configuration not stated), the IC50 is below 800 nM.

`CCN1CCC[C@H]1CNC(=O)Nc1nc2c(s1)-c1c(cnn1-c1ccccc1Cl)C2` had an IC50 below 800 nM.

`CCCCNC(=O)Nc1nc2c(s1)-c1c(cnn1-c1cccc(F)c1C(F)(F)F)C2` gave a 50% inhibitory concentration (IC50) below 800 nM.

On to `O=C(O)CC1(CNC(=O)Nc2nc3c(s2)-c2c(cnn2-c2ccccc2Cl)C3)CCCCC1`, for which the IC50 is below 800 nM.

For the molecule `O=C(NCC1CC1)Nc1nc2c(s1)-c1c(cnn1-c1ccccc1Cl)C2`, the IC50 is below 800 nM.

Molecule `Cn1nc(CNC(=O)Nc2nc3c(s2)-c2c(cnn2-c2ccccc2C(F)(F)F)C3)cc1O` had an IC50 below 800 nM.

In turn, `C=CCn1cnc(CCNC(=O)Nc2nc3c(s2)-c2c(cnn2-c2ccccc2C(F)(F)F)C3)c1` yielded an IC50 below 800 nM.

Molecule `Nc1cc(CCNC(=O)Nc2nc3c(s2)-c2c(cnn2-c2ccccc2C(F)(F)F)C3)nn1Cc1ccccc1` gave a half-inhibitory concentration (IC50) below 800 nM.

Turning to `CN(C)C(=O)CNC(=O)Nc1nc2c(s1)-c1c(cnn1-c1ccccc1Cl)C2`, the 50% inhibitory concentration (IC50) was below 800 nM.

`CCCn1cnc(CCNC(=O)Nc2nc3c(s2)-c2c(cnn2-c2ccccc2Br)C3)c1` had an IC50 below 800 nM.

On to `O=C(NCc1nnc(-c2ccccc2)o1)Nc1nc2c(s1)-c1c(cnn1-c1ccccc1C(F)(F)F)C2`, for which the IC50 is below 800 nM.

`CN1CCC(O)C2(CCCN(C(=O)Nc3nc4c(s3)-c3c(cnn3-c3ccccc3Cl)C4)C2)C1` (configuration not stated) returned a concentration for half-maximal inhibition (IC50) below 800 nM.

`CNC(=O)Nc1nc2c(s1)-c1c(cnn1-c1cccc(F)c1C(F)(F)F)C2` showed an IC50 below 800 nM.

Take `CCCCNC(=O)Nc1nc2c(s1)-c1c(cnn1-c1ccccc1Cl)C2`: the half-inhibitory concentration (IC50) is below 800 nM.

As to `O=C(O)[C@H]1[C@H](c2ccccc2)CCN1C(=O)Nc1nc2c(s1)-c1c(cnn1-c1ccccc1Cl)C2`, the half-inhibitory concentration (IC50) was below 800 nM.

Molecule `O=C(O)CCCNC(=O)Nc1nc2c(s1)-c1c(cnn1-c1ccccc1C(F)(F)F)C2` yielded an IC50 below 800 nM.

The molecule `O=C(NCc1ccc(CN2CCNC2=O)cc1)Nc1nc2c(s1)-c1c(cnn1-c1ccccc1Cl)C2` showed an IC50 below 800 nM.

`O=C(Nc1nc2c(s1)-c1c(cnn1-c1ccccc1Cl)C2)N1CCCCC1c1nc2ccccc2[nH]1` (configuration not stated) displayed an IC50 below 800 nM.

`Cc1cc(-c2cccnc2)nn1CCNC(=O)Nc1nc2c(s1)-c1c(cnn1-c1ccccc1C(F)(F)F)C2` displayed an IC50 below 800 nM.

As to `O=C(NCc1cccc(N2CCNC2=O)c1)Nc1nc2c(s1)-c1c(cnn1-c1ccccc1Cl)C2`, the concentration for half-maximal inhibition (IC50) was below 800 nM.

`CCNC(=O)Nc1nc2c(s1)-c1c(cnn1-c1cccc(F)c1C(F)(F)F)C2` came in with a half-maximal inhibitory concentration (IC50) below 800 nM.

In turn, `CC(C)(C)OC(=O)N1CCC[C@H]1CNC(=O)Nc1nc2c(s1)-c1c(cnn1-c1ccccc1C(F)(F)F)C2` displayed an IC50 below 800 nM.

Turning to `CC(C)(NC(=O)Nc1nc2c(s1)-c1c(cnn1-c1ccccc1Cl)C2)C1Nc2ccccc2NC1=O` (configuration not stated), the IC50 is below 800 nM.

As to `CC(C)(C)OC(=O)N1CCCCC1CNC(=O)Nc1nc2c(s1)-c1c(cnn1-c1ccccc1Cl)C2` (configuration not stated), the half-maximal inhibitory concentration (IC50) is below 800 nM.

With `CC(C)CCNC(=O)Nc1nc2c(s1)-c1c(cnn1-c1ccccc1Cl)C2`, the IC50 is below 800 nM.

For `Cn1cc(CNC(=O)Nc2nc3c(s2)-c2c(cnn2-c2ccccc2Cl)C3)cn1`, the IC50 was below 800 nM.

In turn, `CCc1cnc(CCNC(=O)Nc2nc3c(s2)-c2c(cnn2-c2ccccc2Cl)C3)o1` returned an IC50 below 800 nM.

As for `O=C(NCc1cccc(C(=O)NC2CCCCC2)c1)Nc1nc2c(s1)-c1c(cnn1-c1ccccc1Cl)C2`, the IC50 is below 800 nM.

Consider `O=C(NCC1CC1)Nc1nc2c(s1)-c1c(cnn1-c1ccccc1C(F)(F)F)C2`, for which the IC50 is below 800 nM.

`Nc1cc(CCNC(=O)Nc2nc3c(s2)-c2c(cnn2-c2ccccc2C(F)(F)F)C3)nn1-c1ccccc1` showed an IC50 below 800 nM.

As for `CNC(=O)c1ccc(-n2ncc3c2-c2sc(NC(=O)NCc4cc(C5CC5)n[nH]4)nc2C3)c(C(F)(F)F)c1`, the half-inhibitory concentration (IC50) is below 800 nM.

Take `Nc1cc(CCNC(=O)Nc2nc3c(s2)-c2c(cnn2-c2ccccc2C(F)(F)F)C3)nn1C1CCCC1`: the IC50 is below 800 nM.

In the case of `CC(C)Cn1cnc(CCNC(=O)Nc2nc3c(s2)-c2c(cnn2-c2ccccc2C(F)(F)F)C3)c1`, the concentration for half-maximal inhibition (IC50) is below 800 nM.

Regarding `NC(=O)Nc1nc2c(s1)-c1c(cnn1-c1cccc(F)c1C(F)(F)F)C2`, the IC50 was below 800 nM.

`CC(C)(C)c1cc(CNC(=O)Nc2nc3c(s2)-c2c(cnn2-c2ccccc2C(F)(F)F)C3)[nH]n1` displayed an IC50 below 800 nM.

`Cn1cccc1CCNC(=O)Nc1nc2c(s1)-c1c(cnn1-c1ccccc1Cl)C2`: the IC50 was below 800 nM.

`NC(=O)Nc1nc2c(s1)-c1c(cnn1-c1ccccc1C(F)(F)F)C2` displayed a 50% inhibitory concentration (IC50) below 800 nM.

In the case of `Cc1cc(-c2ccccc2)n(CCNC(=O)Nc2nc3c(s2)-c2c(cnn2-c2ccccc2C(F)(F)F)C3)n1`, the IC50 was below 800 nM.

In turn, `CC(C)(C)OC(=O)N1CCC[C@H]1CNC(=O)Nc1nc2c(s1)-c1c(cnn1-c1ccccc1Cl)C2` had an IC50 below 800 nM.

The molecule `O=C(NCCn1nc(C(F)(F)F)cc1-c1ccco1)Nc1nc2c(s1)-c1c(cnn1-c1ccccc1C(F)(F)F)C2` showed an IC50 below 800 nM.

Take `O=C(NCCc1cccnc1)Nc1nc2c(s1)-c1c(cnn1-c1ccccc1Cl)C2`: the IC50 was below 800 nM.

As for `CC(C)(C)OC(=O)Nc1cccc(CNC(=O)Nc2nc3c(s2)-c2c(cnn2-c2ccccc2Cl)C3)c1`, the IC50 was below 800 nM.

Regarding `CCn1cnc(CCNC(=O)Nc2nc3c(s2)-c2c(cnn2-c2ccccc2Br)C3)c1`, the IC50 is below 800 nM.

As for `CCn1cc(CNC(=O)Nc2nc3c(s2)-c2c(cnn2-c2ccccc2C(F)(F)F)C3)cn1`, the IC50 was below 800 nM.

`CC(C)c1cnc(CCNC(=O)Nc2nc3c(s2)-c2c(cnn2-c2ccccc2Cl)C3)o1` had an IC50 below 800 nM.

As to `CCOC(=O)CCNC(=O)Nc1nc2c(s1)-c1c(cnn1-c1ccccc1Br)C2`, the IC50 is below 800 nM.

Turning to `O=C(NCc1ccccc1)Nc1nc2c(s1)-c1c(cnn1-c1ccccc1C(F)(F)F)C2`, the IC50 was below 800 nM.

Molecule `CCCn1cnc(CCNC(=O)Nc2nc3c(s2)-c2c(cnn2-c2ccccc2Cl)C3)c1` displayed an IC50 below 800 nM.

Source of the values: the Kinase Knowledgebase extract (Sharma et al. 2016).
